“Also recorded” adds a separate entry of the source.
Assays:
[1] = test system: ALDH1A3 target genes (RARB, DHRS3, ELF3, RARRES1); assay: Expression of ALDH1A3 target genes in breast cancer cell lines by QPCR; assay type: cell-based; conditions: 24 hours of treatment; for Expression of ALDH1A3 target genes in ALDH1A3-expressing lines: ALDH1A3-overexpressing MDA-MB-231, MDA-MB-468 and HCC1806 cells; for Expression of ALDH1A3 target genes in native line: native MDA-MB-231 cells
Procedure: FIGS. 5A, 5B, 5C. […] Expression of DHRS3, RARB, ELF3, and RARRES1 in MDA-MB-231 cells with ALDH1A3 overexpression (FIG. 5A), MDA-MB-468 cells (with ALDH1A3 shRNA knockdown as control, FIG. 5B), and HCC1806 (with ALDH1A3 shRNA knockdown as control, FIG. 5C) is determined 24 hours after treatment with 0, 1, 10, or 100 nM compound 1 by QPCR. Significance determined by one-way Anova, p-value […], <0.01=**, <0.001=***, <0.0001=****.
Subsequently, to confirm the direct inhibitory activity of the tested compounds on the enzymatic isoform of interest, their effect on the expression of ALDH1A3 target genes, and in particular of RARB, DHRS3, ELF3, and RARRES1, was investigated in the aforementioned cell lines.

ALDH1A1 = target: T1, ALDH1A1 (Homo sapiens, UniProt P00352); assay: Aldefluor test in MDA-MB-231 cells overexpressing ALDH1A1; assay type: cell-based
T1 construct: expressed in transfected cells; host or cells: MDA-MB-231
T1 sequence (P00352 1-501): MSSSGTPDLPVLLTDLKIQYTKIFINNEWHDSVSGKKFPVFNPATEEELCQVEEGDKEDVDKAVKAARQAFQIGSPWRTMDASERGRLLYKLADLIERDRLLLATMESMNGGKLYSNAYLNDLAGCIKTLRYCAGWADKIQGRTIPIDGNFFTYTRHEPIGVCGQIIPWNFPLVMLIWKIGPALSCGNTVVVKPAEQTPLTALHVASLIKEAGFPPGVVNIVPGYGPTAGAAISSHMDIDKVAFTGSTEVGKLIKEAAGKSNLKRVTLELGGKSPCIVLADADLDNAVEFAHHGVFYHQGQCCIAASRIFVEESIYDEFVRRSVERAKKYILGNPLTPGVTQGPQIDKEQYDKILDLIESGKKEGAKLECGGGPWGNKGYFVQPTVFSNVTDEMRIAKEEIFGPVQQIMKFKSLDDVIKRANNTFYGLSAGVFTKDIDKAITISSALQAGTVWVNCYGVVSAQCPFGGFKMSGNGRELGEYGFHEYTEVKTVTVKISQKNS
Procedure: (§1) In vitro assays were conducted on breast cancer cell lines MDA-MB-231, MDA-MB-468, and HCC1806 cells. Specifically, the MDA-MB-231 cell line, characterized by a low expression of ALDH1A, was used as such or after being engineered to overexpress the ALDH1A1 or ALDH1A3 isoform, while the MDA-MB-468 and HCC1806 cell lines, characterized by a high expression of ALDH1A3 were used as such or after being knocked down for the ALDH1A3 isoform (FIG. 1). […] The experiments were conducted using the Aldefluor® test, specific for aldehyde dehydrogenases.

ALDH1A3 = target: T2, ALDH1A3 (Homo sapiens, UniProt P47895); assay: Aldefluor test in MDA-MB-231 cells overexpressing ALDH1A3; assay type: cell-based; conditions: for IC50: Aldefluor test; for Inhibition of ALDH1A3-induced Aldefluor activity: dilution series of compound
T2 construct: expressed in transfected cells; host or cells: MDA-MB-231
T2 sequence (P47895 1-512): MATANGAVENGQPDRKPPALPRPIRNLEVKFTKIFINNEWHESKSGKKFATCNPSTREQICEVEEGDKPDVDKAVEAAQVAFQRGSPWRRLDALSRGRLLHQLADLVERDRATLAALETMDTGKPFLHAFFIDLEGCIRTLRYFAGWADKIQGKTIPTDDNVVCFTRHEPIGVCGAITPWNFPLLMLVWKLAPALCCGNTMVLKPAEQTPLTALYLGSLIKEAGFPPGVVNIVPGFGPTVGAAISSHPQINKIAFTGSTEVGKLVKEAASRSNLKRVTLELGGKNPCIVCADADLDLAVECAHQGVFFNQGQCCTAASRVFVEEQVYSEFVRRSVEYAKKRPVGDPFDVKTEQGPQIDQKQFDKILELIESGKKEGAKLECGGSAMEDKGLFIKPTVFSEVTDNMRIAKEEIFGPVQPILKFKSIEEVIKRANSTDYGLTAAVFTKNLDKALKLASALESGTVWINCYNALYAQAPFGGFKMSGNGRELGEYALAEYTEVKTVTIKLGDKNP
Procedure: as §1

[2] = Toxicity readouts in the xenograft study: body weight, serum ALT, serum creatinine; assay type: in vivo, mice
Procedure: (§2) In vivo experimentation then ensued. The in vivo assays were conducted using eight-week-old female NOD/SCID mice orthotopically injected with 2×10^6 native or ALDH1A3-overexpressing MDA-MB-231 cells. 60 female NOD-SCID mice had approximately 2,000,000 MDA-MB-231 cells injected into a 5th mammary fat pad. 30 mice were injected with MDA-MB-231 bearing a vector control (Groups 1-3), and 30 mice were injected with MDA-MB-231 bearing an ALDH1A3 overexpression vector (Groups 4-6). On day 15 of inoculation, the treatment phase began. Groups 1 and 4 (n=10, 10 respectively) received saline i.p. injections 100 uL every day for 26 days. Groups 2 and 5 (n=10, 10) received 0.4 mg/kg drug i.p. in 100 uL saline every day for 26 days. Groups 3 and 6 (n=10, 10) received 4.0 mg/kg drug i.p. in 100 uL saline every day for 26 days. Caliper measurements of tumors and body weights were taken throughout the treatment phase. After 26 days, all mice were euthanized, the tumors were harvested, and blood was drawn for analysis.
This is evidenced by the trend over time of their body weight (FIG. 7) and also the analysis of alanine aminotransferase (ALT) and creatinine levels in serum collected from terminal animals (FIGS. 12A and 12B).

MDA-MB-231 tumors = assay: Orthotopic MDA-MB-231 xenograft (native or ALDH1A3-overexpressing) in NOD/SCID mice; assay type: in vivo; conditions: for RARB level in tumors (pharmacodynamic analysis): ALDH1A3-overexpressing MDA-MB-231 tumors harvested day 41, treatment from day 15
Procedure: as §2
On day 15, the animals were treated with compound 1, administered daily intraperitoneally at a concentration of 0.4 mg/Kg or 4 mg/Kg, then constantly monitored for body weight increase (FIG. 7) and tumor volume (FIG. 8). Once the tumors became palpable, we started treatment of the animals (day 15). After 26 days of treatment, the animals were sacrificed and the tumors were collected and evaluated for size (FIGS. 8 and 9) and weight (FIG. 10).

[3] = MDA-MB-231 cells overexpressing ALDH1A3
[4] = MDA-MB-231 cells with ALDH1A3 overexpression
[5] = daily treatment from day 15, measured on day 41, mice

| IC50 (ALDH1A3; [3]) [nM] | Inhibition of ALDH1A3-induced Aldefluor activity (ALDH1A3; [4]) | Inhibition of Aldefluor assay activity of ALDH1A3 (ALDH1A3; 100 uM, MDA-MB-231 cells overexpressing ALDH1A3) | Amounts distinguishable from control counts in the plot of Aldefluor count (ALDH1A3; MDA-MB-231 cells with ALDH1A3 overexpression, all other concentrations not distinguishable from control) [µM] | Compound | Expression of ALDH1A3 target genes in ALDH1A3-expressing lines [1] | Expression of ALDH1A3 target genes in native line [1] | Inhibition of Aldefluor assay activity of ALDH1A1 (ALDH1A1; 100 uM) | Inhibition of Aldefluor activity induced by ALDH1A1 overexpression (ALDH1A1; all plotted concentrations) | Toxicity (overall) ([2]; daily i.p. 0.4 or 4 mg/Kg for 26 days, mice) | Serum alanine aminotransferase (ALT) [2, 5] | Serum creatinine [2, 5] | Body weight ([2]; mice injected with MDA-MB-231 cells, treatment from day 15) | Tumor growth (volume, weight) induced by ALDH1A3 (MDA-MB-231 tumors; 0.4 or 4 mg/Kg i.p. daily for 26 days from day 15, NOD/SCID mice) | RARB level in tumors (pharmacodynamic analysis) (MDA-MB-231 tumors) | RARB level in tumors (pharmacodynamic analysis) (MDA-MB-231 tumors; listed as compound 1) |
| --- | --- | --- | --- | --- | --- | --- | --- | --- | --- | --- | --- | --- | --- | --- | --- |
| 9.4 | inhibits Aldefluor activity | – | – | CC(=O)c1ccc(-c2cc(-c3ccc(C#N)cc3)cn3cc(-c4ccccc4)nc23)cc1 [Compound 2, 4-(8-(4-acetylphenyl)-2-phenylimidazo[1,2-a]pyridin-6-yl)benzonitrile] | statistically significantly reduced the expression of the target genes | neither compound 1 nor compound 2 produced significant results | – | – | – | – | – | – | – | – | – |
| – | – | inhibits | – | CCN(CC)c1ccc(C=O)cc1 [DEAB, 4-Diethylaminobenzaldehyde, reference compound] | – | – | – | – | – | – | – | – | – | – | – |
| ~100000 | inhibit | – | 100 | c1ccc(-c2ccc3nc(-c4ccccc4)cn3c2)cc1 [GA11, reference compound] | – | – | – | – | – | – | – | – | – | – | – |

| Compound | IC50 (ALDH1A3; [3]) [nM] | Inhibition of ALDH1A3-induced Aldefluor activity (ALDH1A3; [4]) | Inhibition of Aldefluor assay activity of ALDH1A3 (ALDH1A3; 100 uM, MDA-MB-231 cells overexpressing ALDH1A3) | Amounts distinguishable from control counts in the plot of Aldefluor count (ALDH1A3; MDA-MB-231 cells with ALDH1A3 overexpression, all other concentrations not distinguishable from control) [µM] | Expression of ALDH1A3 target genes in ALDH1A3-expressing lines [1] | Expression of ALDH1A3 target genes in native line [1] | Inhibition of Aldefluor assay activity of ALDH1A1 (ALDH1A1; 100 uM) | Inhibition of Aldefluor activity induced by ALDH1A1 overexpression (ALDH1A1; all plotted concentrations) | Toxicity (overall) ([2]; daily i.p. 0.4 or 4 mg/Kg for 26 days, mice) | Serum alanine aminotransferase (ALT) [2, 5] | Serum creatinine [2, 5] | Body weight ([2]; mice injected with MDA-MB-231 cells, treatment from day 15) | Tumor growth (volume, weight) induced by ALDH1A3 (MDA-MB-231 tumors; 0.4 or 4 mg/Kg i.p. daily for 26 days from day 15, NOD/SCID mice) | RARB level in tumors (pharmacodynamic analysis) (MDA-MB-231 tumors) | RARB level in tumors (pharmacodynamic analysis) (MDA-MB-231 tumors; listed as compound 1) |
| --- | --- | --- | --- | --- | --- | --- | --- | --- | --- | --- | --- | --- | --- | --- | --- |
| CC(=O)c1ccc(-c2cc(-c3ccc(C(C)=O)cc3)c3nc(-c4ccccc4)cn3c2)cc1 [Compound 1, 1,1′-((2-phenylimidazo[1,2-a]pyridine-6,8-diyl)bis(4,1-phenylene))bis(ethan-1-one)] | 1.9 | inhibits Aldefluor activity | – | – | statistically significantly reduced the expression of the target genes; also recorded: specifically inhibit the expression of ALDH1A3 target genes | neither compound 1 nor compound 2 produced significant results | did not inhibit | does not inhibit Aldefluor activity | no detectable toxicity | does not affect | does not affect | No significant changes were observed | reduce, in a statistically significant way, the increased tumor growth | reduces ALDH1A3-inducible RARB expression | significantly reduced RARB level |
